Patent publication EP1507010B1, “Control of the gene expression in eukaryotic cells” (priority 1999, dated 2001)

Legend:
[1] = tested on: HA-VP16-EsaR fusion (pMON53005); experiment: Transient GUS reporter assay in transfected carrot protoplasts with VP16-EsaR effector; type: cell-based, Erwinia sterwartii; conditions: for + inducer (average of the GUS activities): 25 [i M] OOHL, 36 hrs
Protocol: Plasmids for transfection were isolated and purified using Megaprep plasmid DNA isolation kit (Qiagen). Carrot protoplasts for transfections were prepared from carrot cell suspension culture and transfected with purified DNA as described (Ulmasov et al., Plant Cell 7:1611-1623, 1995). Briefly, 10 ì g of the reporter plasmid and 5 ìg of the effector plasmid were incubated with 10^6 protoplasts for five minutes at the room temperature in the presence of polyethylene glycol-calcium solution. After diluting approximately 10-fold with the culture medium, the protoplasts were incubated in the dark for 36 hours either in the presence or absence of the inducer 3-oxohexanoyl-homoserine lactone (OHHL, racemic mixture of the L- and D-isomers, purchased from Sigma Chemical Co., St Louis, MO). After incubation, protoplasts were collected by low-speed centrifugation, lysed and the level of GUS activity was measured using fluorometric GUS assay (Jefferson et al., EMBO J. 6:3901-3907, 1987).
Ten µg of the reporter plasmid (pMON53031), and indicated amount of the 35S effector plasmid per reaction was used for transfection in triplicate.

[2] = molecular target: T1, HA-VP16-TraR fusion (TraR from Agrobacterium strain A348 fused to VP16 activation domain; pMON53030) (UniProt P06492+P33905); experiment: Transient GUS reporter assay in transfected carrot protoplasts with VP16-TraR effector; type: cell-based, Agrobacterium tumefaciens; parameters: + inducer (average of the GUS activities) / + inducer (GUS activity, average) / GUS activity, average (with AHL or analog at the stated concentration) / GUS activity, average (+ inducer) / GUS activity, average: unit not given here; conditions: for GUS activity, average ('- inducer'): 1 µM of the AHL or analog; for GUS activity, average ('- inducer') / GUS activity, average (with AHL or analog at the stated concentration) / GUS activity, average (+ inducer) / GUS activity, average / fold +/-: reporter TraA8(4X)-GUS + 35S-VP16-TraR; for GUS activity, average (with AHL or analog at the stated concentration): 5 µM of the AHL or analog; for GUS activity, average: 25 µM of the AHL or analog; for + inducer (GUS activity, average): 12.5 µM C8-AHL
T1 construct: PCR fragments containing open reading frames are cloned into an expression construct; expressed in transfected cells; host or cells: carrot protoplasts from cell suspension culture, transient transfection
Description: Carrot protoplasts were transfected with the TraA8 (4X)- GUS reporter construct with the 35S-VP16-TraR activator gene and tested for GUS induction by application of wild type AHL and the various AHL analogs described in Example 8. Table 8: Transient assays in carrot protoplasts of AHL analogs

TraM = conditions: 12.5 µM C8-AHL; reporter TraA8(3X), cl.4 (60 µg) + TraM
Description: Plasmids for transfection were isolated and purified using Megaprep plasmid DNA isolation kit (Qiagen).

[3] = tested on: TraR (expressed from GAL1 galactose inducible promoter, pGAL415TraR); experiment: β-galactosidase reporter assay (chemiluminescent) in yeast expressing TraR; type: cell-based, Agrobacterium tumefaciens; conditions: 50µM C8-HSL, 5 hrs of growth on galactose; strain YPH499, cl.5 and 6; minimal promoter with 3 copies of TraA8 element
[4] = tested on: VP16-TraR fusion (pMON53077); experiment: GUS activity in transgenic Arabidopsis plants carrying GUS reporter and 35S-VP16-TraR activator genes; type: in vivo, Agrobacterium tumefaciens; conditions: detached caulline leaves, 24 hours in MS medium with 100 µM HSL
Protocol: Transgenic Arabidopsis plants containing TraA8(3X)-GUS reporter and 35S-VP16-TraR activator genes (pMON53077) were analyzed for induction of GUS activity. […] GUS assays were conducted as described by Jefferson et al. (supra).
In addition, detached leaves incubated for 24 hours in MS medium with or without 100 µM HSL were visualized for induction of GUS activity after staining.

[5] = 25 [i M] inducer (OOHL, or C6), reporter pMON53031, pMON53030 60 µg, 36 hrs
[6] = ratio of GUS activity at 12.5 µM to that at 5 µM
[7] = ratio of GUS activity at 75 µM to that at 25 µM
[8] = ratio of GUS activity at […] to that at 1 µM

Compound: CCCC(=O)CC(=O)N[C@H]1CCOC1=O [C6, N-(3-oxohexanoyl)-L-homoserine lactone]
- activation by the VP16-EsaR construct diminished by addition of the inducer ([1]; reporter esaR box (4X)-GUS pMON53009, dose-dependent, concentration not given, 36 hours): up to 3.3 fold
- Fold induction ([2]; 25 [i M] inducer (OOHL, or C6) vs no inducer, reporter pMON53031, pMON53030 60 µg, 36 hrs, 25 µM): 1.6 fold
- + inducer (average of the GUS activities) [2, 5]: 568.5

Compound: CCCCCC(=O)C(C)C(=O)N[C@@H](CCO)C(=O)O (stereo partly drawn) [compound 7, N-(α-Methyl-b-ketooctanoyl)-(S)-homoserine]
- GUS activity, average ('- inducer') [2]: 180.2
- GUS activity, average (with AHL or analog at the stated concentration) [2]: 1071.5
- GUS activity, average (+ inducer) ([2]; 12.5 µM of the AHL or analog): 2746.0
- GUS activity, average [2]: 2486.3
- GUS activity, average (+ inducer) ([2]; 75 µM of the AHL or analog): 3209.7
- fold +/- [2, 6]: 2.6 fold
- fold +/- [2, 7]: 1.3 fold
- fold +/- [2, 8]: 1.8 fold

Compound: CCCCCCC(C(C)=O)C(=O)N[C@@H](CCO)C(=O)O (stereo partly drawn) [compound 26, N-(α-Hexyl-b-ketobutanoyl)-(S)-homoserine]
- GUS activity, average ('- inducer') [2]: 184.7
- GUS activity, average (with AHL or analog at the stated concentration) [2]: 387.6
- GUS activity, average (+ inducer) ([2]; 12.5 µM of the AHL or analog): 1812.5
- GUS activity, average [2]: 1515.3
- GUS activity, average (+ inducer) ([2]; 75 µM of the AHL or analog): 2879.9
- fold +/- [2, 6]: 4.7 fold
- fold +/- [2, 7]: 1.9 fold
- fold +/- [2, 8]: 1.2 fold

Compound: 3-oxooctanoyl-L-homoserine lactone [C8-HSL]
- + inducer (average of the GUS activities) ([1]; pMON53035 (lasB box 3X-GUS) + pMON53005 60 µg): 4.9
- + inducer (average of the GUS activities) ([1]; reporter pMON53031, pMON53005 60 µg): 764.1
- GUS activity, average ('- inducer') [2]: 1263.2
- GUS activity, average (with AHL or analog at the stated concentration) [2]: 3018.7
- + inducer (GUS activity, average) ([2]; reporter Tra box(3X), cl.5, second transfection): 1576.2
- + inducer (GUS activity, average) ([2]; reporter TraA1 (3X), cl.35, second transfection): 1560.4
- + inducer (GUS activity, average) ([2]; reporter TraA2(3X), cl.43, second transfection): 2057.1
- + inducer (GUS activity, average) ([2]; reporter TraA3(3X), cl.4, second transfection): 100.1
- + inducer (GUS activity, average) ([2]; reporter TraA4(3X), cl.23, second transfection): 109.6
- + inducer (GUS activity, average) ([2]; reporter TraA5(3X), cl.2, second transfection): 82.3
- + inducer (GUS activity, average) ([2]; reporter TraA6(3X), cl.21, second transfection): 3.2
- + inducer (GUS activity, average) ([2]; reporter TraA7(3X), cl.15, second transfection): 236.8
- + inducer (GUS activity, average) ([2]; reporter TraA8(3X), cl.4 (25µg) + TraR + CAT): 762.2
- + inducer (GUS activity, average) ([2]; reporter TraA8(3X), cl.4 (25µg) + TraR + TraM co-transfected): 11.8
- + inducer (GUS activity, average) ([2]; reporter TraA8(3X), cl.4 (25µg) + TraR + TraS co-transfected): 248.3
- + inducer (GUS activity, average) ([2]; reporter TraA8(3X), cl.4 (60 µg), effector printed as TraR): 1665.3
- + inducer (GUS activity, average) ([2]; reporter TraA8(3X), cl.4, second transfection): 1759.1
- + inducer (GUS activity, average) ([2]; reporter TraA8(4X), cl. 16 + HA-VP16-TraR): 1015.3
- + inducer (GUS activity, average) ([2]; reporter TraA10(3X), cl.17, second transfection): 641.1
- + inducer (GUS activity, average) ([2]; reporter TraA-1(3X), cl.14, second transfection): 26.7
- + inducer (GUS activity, average) ([2]; reporter tra box (6X), cl.7, first transfection): 987.4
- + inducer (GUS activity, average) ([2]; reporter traA1(3X), cl.35, first transfection): 1941.5
- + inducer (GUS activity, average) ([2]; reporter traA2(3X), cl.43, first transfection): 2281.6
- + inducer (GUS activity, average) ([2]; reporter traA3(3X), cl.4, first transfection): 116.5
- + inducer (GUS activity, average) ([2]; reporter traA4(3X), cl.23, first transfection): 122.8
- + inducer (GUS activity, average) ([2]; reporter traA5(3X), cl.2, first transfection): 20.5
- + inducer (GUS activity, average) ([2]; reporter traA6(3X), cl.21, first transfection): 64.6
- + inducer (GUS activity, average) ([2]; reporter traA7(3X), cl.15, first transfection): 234.8
- + inducer (GUS activity, average) ([2]; reporter traA8(3X), cl.4, first transfection): 888.0
- + inducer (GUS activity, average) ([2]; reporter traA9(3X), cl.8, first transfection): 63.7
- GUS activity, average (+ inducer) ([2]; 12.5 µM of the AHL or analog): 4142.8
- GUS activity, average [2]: 7642.9
- GUS activity, average ([2]; listed as CB-HSL): 7523.9
- GUS activity, average (+ inducer) ([2]; 75 µM of the AHL or analog): 7975.7
- + inducer (average of the GUS activities) ([2]; 0.1 [i M] OOHL, reporter pMON53031, pMON53030 60 µg, 36 hrs): 355.9
- + inducer (average of the GUS activities) ([2]; 0.5 [i M] OOHL, reporter pMON53031, pMON53030 60 µg, 36 hrs): 698
- + inducer (average of the GUS activities) ([2]; 1 [i M] OOHL, reporter pMON53031, pMON53030 60 µg, 36 hrs): 458.2
- + inducer (average of the GUS activities) ([2]; 2.5 [i M] OOHL, reporter pMON53031, pMON53030 60 µg, 36 hrs): 1487.8
- + inducer (average of the GUS activities) ([2]; 5 [i M] OOHL, reporter pMON53031, pMON53030 60 µg, 36 hrs): 1474.2
- + inducer (average of the GUS activities) ([2]; 12.5 [i M] OOHL, reporter pMON53031, pMON53030 60 µg, 36 hrs): 1526.2
- + inducer (average of the GUS activities) ([2]; 25 [i M] OOHL, reporter pMON53031, pMON53030 30 µg + CAT, 36 hrs): 215.7
- + inducer (average of the GUS activities) [2, 5]: 1393.2
- + inducer (average of the GUS activities) ([2]; 50 [i M] OOHL, reporter pMON53031, pMON53030 60 µg, 36 hrs): 1595.5
- + inducer (average of the GUS activities) ([2]; 100 [i M] OOHL, reporter pMON53031 (traII box 3X-GUS) 10 µg, pMON53030 60 µg, 36 hrs): 1446.4
- + inducer (GUS activity, average) (TraM): 98.0
- induction of β-gal activity in cell extracts [3]: strong induction
- induction of GUS activity by histochemical GUS staining [4]: uniform induced activity

Compound: CCCCCC(=O)C(CC)C(=O)N[C@@H](CCO)C(=O)O (stereo partly drawn) [compound 19, N-(α-Ethyl-b-ketooctanoyl)-(S)-homoserine]
- GUS activity, average ('- inducer') [2]: 469.6
- GUS activity, average (with AHL or analog at the stated concentration) [2]: 2239.4
- GUS activity, average (+ inducer) ([2]; 12.5 µM of the AHL or analog): 5377.3
- GUS activity, average [2]: 6732.3
- GUS activity, average (+ inducer) ([2]; 78 µM as printed): 7569.1
- fold +/- [2, 6]: 2.4 fold
- fold +/- ([2]; ratio of GUS activity at 78 µM to that at 25 µM): 1.1 fold
- fold +/- [2, 8]: 2.8 fold

Compound: CCCCCC(=O)C(C)(C)C(=O)N[C@@H](CCO)C(=O)O [compound 16, N-(α,α-Dimethyl-b-ketooctanoyl)-(S)-homoserine]
- GUS activity, average ('- inducer') [2]: 111.8
- GUS activity, average (with AHL or analog at the stated concentration) [2]: 229.7
- GUS activity, average (+ inducer) ([2]; 12.5 µM of the AHL or analog): 509.8
- GUS activity, average [2]: 1426.6
- GUS activity, average (+ inducer) ([2]; 75 µM of the AHL or analog): 4719.8
- fold +/- [2, 6]: 2.2 fold
- fold +/- [2, 7]: 3.3 fold
- fold +/- [2, 8]: 2.8 fold

Compound: CCCCCC(=O)C(CCCC)C(=O)N[C@@H](CCO)C(=O)O (stereo partly drawn) [compound 25, N-(α-Butyl-b-ketooctanoyl)-(S)-homoserine]
- GUS activity, average ('- inducer') [2]: 256.9
- GUS activity, average (with AHL or analog at the stated concentration) [2]: 309.3
- GUS activity, average (+ inducer) ([2]; 12.5 µM of the AHL or analog): 284.7
- GUS activity, average [2]: 224.2
- GUS activity, average (+ inducer) ([2]; 75 µM of the AHL or analog): 252.9
- fold +/- [2, 6]: 0.9 fold
- fold +/- [2, 7]: 1.1 fold
- fold +/- [2, 8]: 2.1 fold
